Source: patent US8093266B2, “Rho kinase inhibitors” (Boehringer Ingelheim International GmbH, priority 2007, dated 2012)

Legend:
[1] = target: T1, ROCKII (1-543) kinase (Homo sapiens, UniProt O75116); assay: Molecular assay: ROCKII (1-543) kinase activity, PKLight ATP detection (luciferin-luciferase, residual ATP); format: biochemical; details: 750 nM ATP, 500 nM peptide substrate, 7.5 nM kinase, 90 min at 28° C.; read-out: Rock2 IC50
T1 construct: ROCKII (1-543) (62,408 Da) was diluted in assay buffer to a final concentration of 7.5 nM
T1 sequence (O75116 1-543): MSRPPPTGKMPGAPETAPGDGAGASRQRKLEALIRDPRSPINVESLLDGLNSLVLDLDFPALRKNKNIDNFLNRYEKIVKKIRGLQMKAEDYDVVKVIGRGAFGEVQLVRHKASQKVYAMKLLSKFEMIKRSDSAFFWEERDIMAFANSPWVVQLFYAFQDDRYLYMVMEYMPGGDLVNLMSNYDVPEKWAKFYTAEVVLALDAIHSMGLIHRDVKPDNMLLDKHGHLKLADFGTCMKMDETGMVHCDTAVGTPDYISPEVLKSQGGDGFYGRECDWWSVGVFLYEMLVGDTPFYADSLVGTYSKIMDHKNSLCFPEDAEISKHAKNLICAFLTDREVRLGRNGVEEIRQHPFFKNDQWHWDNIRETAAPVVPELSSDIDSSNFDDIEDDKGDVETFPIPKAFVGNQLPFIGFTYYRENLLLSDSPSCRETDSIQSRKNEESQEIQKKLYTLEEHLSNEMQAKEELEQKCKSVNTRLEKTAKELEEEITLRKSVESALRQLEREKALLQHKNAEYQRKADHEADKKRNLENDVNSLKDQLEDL
Description: The activity of ROCKII (1-543) kinase was measured utilizing Cambrex PKLight ATP Detection Reagent, a homogeneous assay technology using luciferin-luciferase to quantify residual ATP. The assay was performed in 384-well low-volume, white, non-binding surface microtiter plates (Corning). The assay buffer was 25 mM HEPES, pH 7.5, 10 mM MgCl2, 50 mM KCl, 0.2% BSA, 0.01% CHAPS, 100 μM Na3VO4 and 0.5 mM DTT. Test compounds, dissolved in neat DMSO at 500 μg/mL, were serially diluted for dose response for a final starting concentration of 3 μg/mL in 1% DMSO of assay buffer. ROCKII (1-543) (62,408 Da) was diluted in assay buffer to a final concentration of 7.5 nM in a total volume of 15 μL. Positive controls were reaction mixtures containing no test compound; negative controls (blanks) were reaction mixtures containing no kinase. After 15 minutes of pre-incubation of the test compounds with the kinase, a mixture of ATP and peptide substrate ([…]) in assay buffer was added to each well for a final concentration of 750 nM ATP and 500 nM peptide, respectively. After 90 minutes of incubation of the kinase reaction at 28° C. temperature, 10 μL of PKLight ATP Detection Reagent (warmed to room temperature previously) was added to each well. The assay plate was incubated at room temperature for additional 15 minutes and then read on an Analyst in luminescence mode. Dose-response experiments for each of the test compounds were conducted in quadruplet. IC50 values of test compounds represent 50% response of the positive control from the dose-response curve.
Representative compounds of the present invention were tested for activity in this assay and all had IC50 values <10 μM. Preferred compounds have an IC50<1 μM and more preferred compounds have an IC50<0.1 μM in this assay. As examples the following data were obtained for the compounds named below: […]

[2] = rat stroke model; cited from earlier work
[3] = long term treatment; cited from earlier work

| IC50 [1] | Structure (SMILES) | further results |
| --- | --- | --- |
| 0.013 µM | COc1ccc(C(=O)NCc2cccc(C(=O)Nc3nc4c(s3)C[C@@H](N3CCS(=O)(=O)CC3)CC4)c2)cc1OC [N-{3-[(S)-6-(1,1-Dioxo-thiomorpholin-4-yl)-4,5,6,7-tetrahydro-benzothiazol-2-ylcarbamoyl]-benzyl}-3,4-dimethoxy-benzamide] | – |
| 0.022 µM | COc1ccc(C(=O)NCc2cccc(NC(=O)c3nc4c(s3)CNCC4)c2)cc1OC [4,5,6,7-Tetrahydro-thiazolo[5,4-c]pyridine-2-carboxylic acid {3-[(3,4-dimethoxy-benzoylamino)-methyl]-phenyl}-amide] | – |
| 0.004 µM | COc1ccc(C(=O)NCc2cccc(C(=O)Nc3nc4c(s3)CNCC4)c2)cc1Cl [3-Chloro-4-methoxy-N-[3-(4,5,6,7-tetrahydro-thiazolo[5,4-c]pyridin-2-ylcarbamoyl)-benzyl]-benzamide] | – |
| 0.058 µM | COc1ccc(C(=O)NCc2cccc(C(=O)Nc3ccc(OCCN4CCOCC4)cc3)c2)cc1OC [3,4-Dimethoxy-N-{3-[4-(2-morpholin-4-yl-ethoxy)-phenylcarbamoyl]-benzyl}-benzamide] | – |
| 0.001 µM | COc1ccc(C(=O)NCc2cccc(C(=O)Nc3nc4c(s3)C[C@H](N(C)C)CC4)c2)cc1OC [N-[3-((R)-6-Dimethylamino-4,5,6,7-tetrahydro-benzothiazol-2-ylcarbamoyl)-benzyl]-3,4-dimethoxy-benzamide] | – |
| 0.02 µM | COc1ccc(C(=O)NCc2cccc(C(=O)Nc3ncc(CCN4CCN(C)CC4)s3)c2)cc1OC [3,4-Dimethoxy-N-(3-{5-[2-(4-methyl-piperazin-1-yl)-ethyl]-thiazol-2-ylcarbamoyl}-benzyl)-benzamide] | – |
| 0.001 µM | COc1ccc(C(=O)NCc2cccc(C(=O)Nc3nc4c(s3)C[C@@H](N3CCOCC3)CC4)c2)cc1OC [3,4-Dimethoxy-N-[3-((S)-6-morpholin-4-yl-4,5,6,7-tetrahydro-benzothiazol-2-ylcarbamoyl)-benzyl]-benzamide] | – |
| 0.002 µM | CCCN[C@H]1CCc2nc(NC(=O)c3cccc(CNC(=O)c4ccc(OC)c(Cl)c4)c3)sc2C1 [3-Chloro-4-methoxy-N-[3-((S)-6-propylamino-4,5,6,7-tetrahydro-benzothiazol-2-ylcarbamoyl)-benzyl]-benzamide] | – |

The remaining lines, values behind:

| Structure (SMILES) | IC50 [1] | further results |
| --- | --- | --- |
| COc1ccc(C(=O)NCc2cccc(C(=O)Nc3ccc4c(c3)CC(N)C4)c2)cc1OC (centres unmarked) [N-[3-(2-Amino-indan-5-ylcarbamoyl)-benzyl]-3,4-dimethoxy-benzamide] | 0.012 µM | – |
| COc1ccc(C(=O)NCc2cccc(C(=O)Nc3ccc4c(c3)CNC4)c2)cc1OC [N-[3-(2,3-Dihydro-1H-isoindol-5-ylcarbamoyl)-benzyl]-3,4-dimethoxy-benzamide] | 0.006 µM | – |
| CCN1CCc2ccc(NC(=O)c3cccc(CNC(=O)c4ccc(OC)c(OC)c4)c3)cc2C1 [N-[3-(2-Ethyl-1,2,3,4-tetrahydro-isoquinolin-7-ylcarbamoyl)-benzyl]-3,4-dimethoxy-benzamide] | 0.027 µM | – |
| COc1ccc(C(=O)NCc2cccc(C(=O)Nc3ccc(CCN4CCCC4)cc3)c2)cc1C [4-Methoxy-3-methyl-N-{3-[4-(2-pyrrolidin-1-yl-ethyl)-phenylcarbamoyl]-benzyl}-benzamide] | 0.12 µM | – |
| COCCN1CCc2ccc(NC(=O)c3cccc(CNC(=O)c4ccc(OC)c(OC)c4)c3)cc2C1 [3,4-Dimethoxy-N-{3-[2-(2-methoxy-ethyl)-1,2,3,4-tetrahydro-isoquinolin-7-ylcarbamoyl]-benzyl}-benzamide] | 0.099 µM | – |
| CCCN[C@H]1CCc2nc(N(CCOC)C(=O)c3cccc(CNC(=O)c4ccc(OC)c(Cl)c4)c3)sc2C1 [3-Chloro-4-methoxy-N-{3-[(2-methoxy-ethyl)-((S)-6-propylamino-4,5,6,7-tetrahydro-benzothiazol-2-yl)-carbamoyl]-benzyl}-benzamide] | 0.072 µM | – |
| COc1ccc(C(=O)NCc2cccc(C(=O)Nc3ccc4c(c3)CCNCC4)c2)cc1OC [3,4-Dimethoxy-N-[3-(2,3,4,5-tetrahydro-1H-benzo[d]azepin-7-ylcarbamoyl)-benzyl]-benzamide] | 0.015 µM | – |
| COc1ccc(C(=O)NCc2cccc(C(=O)Nc3cnc4c(c3)CN(C)CC4)c2)cc1OC [3,4-Dimethoxy-N-[3-(6-methyl-5,6,7,8-tetrahydro-[1,6]naphthyridin-3-ylcarbamoyl)-benzyl]-benzamide] | 0.061 µM | – |
| CN1CCc2nc(NC(=O)c3cccc(CNC(=O)Nc4ccc(C#N)cc4)c3)sc2C1 [3-[3-(4-Cyano-phenyl)-ureidomethyl]-N-(5-methyl-4,5,6,7-tetrahydro-thiazolo[5,4-c]pyridin-2-yl)-benzamide] | 0.01 µM | – |
| O=S(=O)(c1cccc2cnccc12)N1CCCNCC1 [fasudil] | – | infarct size and neurologic deficit [2]: reduce both the infarct size and neurologic deficit; coronary constrictive remodeling [3]: promote a regression of coronary constrictive remodeling; coronary stenosis [3]: progressively reduce coronary stenosis |
